Structures are written as SMILES. pIC50, pKd, pKi: −log10 of the molar value.

The record followed here is BindingDB's records for doi:10.1021/acschembio.6b00720 (University of Michigan, 2016).

The target of experiment [1] is T1, Acyl-protein thioesterase 2 (Homo sapiens, UniProt O95372). The experiment can be described thus: Fluorescence Binding Assays. To be noted: 25 °C.
Experiment [2] addresses Acyl-protein thioesterase 2 [S122A] (Homo sapiens, UniProt O95372, S122A). The experiment can be described thus: Fluorescence Binding Assays. The note with it: 25 °C.
Experiment [3] concerns the target Acyl-protein thioesterase 2 [H152R] (Homo sapiens, UniProt O95372, H152R). The experiment can be described thus: Steady-State Kinetic Assays. The note with it: pH 6.5. As to the method:
(§1) Enzymes were diluted to 10 nM in PBS pH 6.5 (adjusted with sodium acetate) supplemented with 0.1 g/L pluronic F127 (Sigma). Varying concentrations of resorufin acetate (Sigma) in DMSO were added as 5 μL aliquots to clear-bottom 96-well plates (Greiner bio-one). Using a multi-channel pipette, 95 μL of enzyme was added to each well and quickly mixed by pipetting up and down several times. Each enzyme was assayed in 2 separate runs, each with 4 replicates per substrate concentration and 4 replicates of catalytic-dead enzyme.

The target in experiment [4] is Acyl-protein thioesterase 2 [L78I,A85S,P86Q,H152R,R153A,A154S] (Homo sapiens, UniProt O95372, A154S/A85S/H152R/L78I/P86Q/R153A). The experiment can be described thus: Steady-State Kinetic Assays. To be noted: pH 6.5. On the procedure: as §1
The target in experiment [5] is T1, Acyl-protein thioesterase 2. The experiment can be described thus: Steady-State Kinetic Assays. The note with it: pH 6.5. On the procedure:
as §1

For experiment [6], the target named is Acyl-protein thioesterase 2 [L78I] (Homo sapiens, UniProt O95372, L78I). The experiment can be described thus: Steady-State Kinetic Assays. The note with it: pH 6.5. On the procedure: as §1
The target of experiment [7] is Acyl-protein thioesterase 2 [L78I,A85S,P86Q] (Homo sapiens, UniProt O95372, A85S/L78I/P86Q). The experiment can be described thus: Steady-State Kinetic Assays. The note with it: pH 6.5. On the procedure: as §1
The target of experiment [8] is Acyl-protein thioesterase 2 [P86Q] (Homo sapiens, UniProt O95372, P86Q). The experiment can be described thus: Steady-State Kinetic Assays. To be noted: pH 6.5. On the procedure:
as §1

Experiment [9] has as its target Acyl-protein thioesterase 2 [M178L] (Homo sapiens, UniProt O95372, M178L). The experiment can be described thus: Steady-State Kinetic Assays. To be noted: pH 6.5. As to the method: as §1
Experiment [10] has as its target Acyl-protein thioesterase 2 [L78I,A85S] (Homo sapiens, UniProt O95372, A85S/L78I). The experiment can be described thus: Steady-State Kinetic Assays. To be noted: pH 6.5. On the procedure: as §1
In experiment [11] the target is Acyl-protein thioesterase 1 [I75L,S82A,Q83P] (Homo sapiens, UniProt O75608, I75L/Q83P/S82A). The experiment can be described thus: Steady-State Kinetic Assays. The note with it: pH 6.5. On the procedure:
as §1

In experiment [12] the target is Acyl-protein thioesterase 1 [Q83P] (Homo sapiens, UniProt O75608, Q83P). The experiment can be described thus: Steady-State Kinetic Assays. To be noted: pH 6.5. As to the method:
as §1

Experiment [13] addresses Acyl-protein thioesterase 1 [I75L,S82A,Q83P,R149H,A150R,S151A] (Homo sapiens, UniProt O75608, A150R/I75L/Q83P/R149H/S151A/S82A). The experiment can be described thus: Steady-State Kinetic Assays. The note with it: pH 6.5. As to the method: as §1
Experiment [14] concerns the target Acyl-protein thioesterase 1 [L176M] (Homo sapiens, UniProt O75608, L176M). The experiment can be described thus: Steady-State Kinetic Assays. The note with it: pH 6.5. On the procedure:
as §1

Experiment [15] concerns the target Acyl-protein thioesterase 1 (Homo sapiens, UniProt O75608). The experiment can be described thus: Steady-State Kinetic Assays. The note with it: pH 6.5. On the procedure: as §1
Experiment [16] deals with Acyl-protein thioesterase 1 [I75L] (Homo sapiens, UniProt O75608, I75L). The experiment can be described thus: Steady-State Kinetic Assays. The note with it: pH 6.5. On the procedure:
as §1

The target in experiment [17] is Acyl-protein thioesterase 1 [I75L,S82A] (Homo sapiens, UniProt O75608, I75L/S82A). The experiment can be described thus: Steady-State Kinetic Assays. The note with it: pH 6.5. As to the method: as §1
Acyl-protein thioesterase 1 [I75L,S82A], sequence (O75608 whole entry I75L/S82A): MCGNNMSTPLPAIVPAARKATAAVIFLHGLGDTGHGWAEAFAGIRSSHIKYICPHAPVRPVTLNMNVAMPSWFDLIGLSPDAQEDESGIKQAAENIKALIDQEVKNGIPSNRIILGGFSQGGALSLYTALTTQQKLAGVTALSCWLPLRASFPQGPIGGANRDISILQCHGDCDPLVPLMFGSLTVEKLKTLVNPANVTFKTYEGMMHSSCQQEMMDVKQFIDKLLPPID

T1 sequence (O95372 whole entry): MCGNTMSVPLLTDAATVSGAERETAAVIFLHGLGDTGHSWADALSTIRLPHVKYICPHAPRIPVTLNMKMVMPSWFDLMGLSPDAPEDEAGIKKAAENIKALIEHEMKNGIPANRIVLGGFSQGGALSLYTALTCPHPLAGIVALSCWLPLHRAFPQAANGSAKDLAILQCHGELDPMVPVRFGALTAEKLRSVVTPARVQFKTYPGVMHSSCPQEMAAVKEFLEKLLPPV
Acyl-protein thioesterase 2 [S122A], sequence (O95372 whole entry S122A): as the sequence (O95372 whole entry) above, with S122A counted along it
Acyl-protein thioesterase 2 [H152R], sequence (O95372 whole entry H152R): as the sequence (O95372 whole entry) above, with H152R counted along it
Acyl-protein thioesterase 2 [L78I,A85S], sequence (O95372 whole entry L78I/A85S): as the sequence (O95372 whole entry) above, with L78I, A85S counted along it
Acyl-protein thioesterase 2 [L78I], sequence (O95372 whole entry L78I): as the sequence (O95372 whole entry) above, with L78I counted along it
Acyl-protein thioesterase 2 [P86Q], sequence (O95372 whole entry P86Q): as the sequence (O95372 whole entry) above, with P86Q counted along it
Acyl-protein thioesterase 2 [L78I,A85S,P86Q], sequence (O95372 whole entry L78I/A85S/P86Q): as the sequence (O95372 whole entry) above, with L78I, A85S, P86Q counted along it
Acyl-protein thioesterase 2 [L78I,A85S,P86Q,H152R,R153A,A154S], sequence (O95372 whole entry L78I/A85S/P86Q/H152R/R153A/A154S): as the sequence (O95372 whole entry) above, with L78I, A85S, P86Q, H152R, R153A, A154S counted along it
Acyl-protein thioesterase 2 [M178L], sequence (O95372 whole entry M178L): as the sequence (O95372 whole entry) above, with M178L counted along it
Acyl-protein thioesterase 1 [I75L,S82A,Q83P,R149H,A150R,S151A], sequence (O75608 whole entry I75L/S82A/Q83P/R149H/A150R/S151A): as the sequence (O75608 whole entry I75L/S82A) above, with Q83P, R149H, A150R, S151A counted along it
Acyl-protein thioesterase 1 [L176M], sequence (O75608 whole entry L176M): as the sequence (O75608 whole entry I75L/S82A) above, with L75I, A82S, L176M counted along it
Acyl-protein thioesterase 1 [Q83P], sequence (O75608 whole entry Q83P): as the sequence (O75608 whole entry I75L/S82A) above, with L75I, A82S, Q83P counted along it
Acyl-protein thioesterase 1 [I75L,S82A,Q83P], sequence (O75608 whole entry I75L/S82A/Q83P): as the sequence (O75608 whole entry I75L/S82A) above, with Q83P counted along it
Acyl-protein thioesterase 1, sequence (O75608 whole entry): as the sequence (O75608 whole entry I75L/S82A) above, with L75I, A82S counted along it
Acyl-protein thioesterase 1 [I75L], sequence (O75608 whole entry I75L): as the sequence (O75608 whole entry I75L/S82A) above, with A82S counted along it

Usually pKd stands for the negative decadic logarithm of the Kd, by convention in mol/L. Read a high pKd as a small Kd. With `O=C1C=CC2C(=C1)Oc1cc(O)ccc1C2c1cc(C(=O)NCCOCCOCCOCCn2cc(COc3ccc(N4CCN(C(=O)c5cc6c(s5)-c5ccccc5S(=O)(=O)C6)CC4)cc3)nn2)ccc1C(=O)O` (stereo not drawn), the values for the pKd in [1] and in [2] were 5.99 and 6.11, respectively.
Usually pKi stands for −log10 of the Ki, conventionally taken in molar units. Read a low pKi as a large Ki. On to `O=C(CN1CCN(C(=O)c2ccco2)CC1)Nc1cc(C(F)(F)F)ccc1Cl` [ML348], for which the pKi was under 5.00 in experiment [3]; 6.37 in experiment [4]; under 5.00 in experiment [5]; 5.24 in [6]; 5.47 in experiment [7]; under 5.00 in experiment [8]. Besides, the pKi in [9] is under 5.00; in experiment [10] it was 5.21.
By pIC50 is commonly meant the negative decadic logarithm of the IC50, by convention in mol/L. For `COc1ccc(N2CCN(C(=O)c3cc4c(s3)-c3ccccc3SC4)CC2)cc1` [ML349-thioether], the negative logarithm of the IC50 (pIC50) in [1] and in experiment [2] was under 4.00 each time. Besides, the negative logarithm of the Kd (pKd) in experiment [1] and in [2] was under 5.00 each time.
`COc1ccc(N2CCN(C(=O)c3cc4c(s3)-c3ccccc3S(=O)(=O)C4)CC2)cc1` [ML349]: the pKi in [11] was 5.92; in experiment [3] it was 6.18; in experiment [4] it was under 5.00; in experiment [12], under 5.00; in [13], 6.74; in experiment [5], 6.92. In addition, the pKi is under 5.00 in experiment [6]; under 5.00 in experiment [7]; 6.89 in experiment [8]; under 5.00 in experiment [14]; under 5.00 in experiment [15]; 6.43 in experiment [16]. The pKi was 6.55 in experiment [17], 6.70 in [9] and under 5.00 in [10]. For the same compound, the pIC50 is 5.96 in experiment [1] and 6.00 in experiment [2]. The negative-log Kd (pKd) in [1] is 6.62; in experiment [2], 6.80.
